Patent US20140243401A1, “METHODS OF SCREENING COMPOUNDS THAT ARE CYTOTOXIC TO TUMOR CELLS AND METHODS OF TREATING TUMOR CELLS USING SUCH COMPOUND” (The Johns Hopkins University, priority 2010, published 2014)
Values after ≈ are worked out from the molar mass of the structure shown. Values joined by “and” are separate entries in the source; they are usually repeats but may differ in a detail not shown here. Identical values can stand only once. Like-named read-outs stand apart in the source and are kept apart here.

Experiments:
[1] = target: T1, purified rat liver FAS (Rattus norvegicus, UniProt P12785); assay: purified rat Type I FAS, spectrophotometric NADPH oxidation; format: biochemical
T1 construct: Highly purified rat FAS was obtained from starved and induced Sprague-Dawley rat livers; from tissue; host or cells: liver of starved and induced Sprague-Dawley rats
Protocol: Highly purified rat FAS was obtained from starved and induced Sprague-Dawley rat livers by slight modification of a published procedure.xx [Abraham, S.; Smith, S. Methods Enzymol. 1975, 35B, 65-73.]. Enzyme activity was assayed spectrophotometrically by measuring the decrease in extinction at 340 nm that accompanies the oxidation of NADPH during the overall reaction. The enzyme reaction mixture contained 100 mM KH2PO4 (pH 6.6), 1 mM EDTA, 1 mM dithiothreitol (DTT), 0.10 mM acetylCoA, 0.20 mM NADPH, ˜3 μg FAS and escalating concentrations of inhibitor to be tested were combined in a final volume of 1 mL and assayed at 37° C. for 5 min to monitor malonylCoA-independent oxidation of NADPH. FAS activity was then initiated by addition of 0.2 mM malonyl-CoA.

[2] = test system: MCF7 cells; assay: JC-1 staining, mitochondrial membrane potential in MCF7 cells; format: cell-based, human
From the text: JC-1 staining is an indicator of mitochondrial membrane potential; with this assay, mitochondria within cells stained with this fluorescent dye emit a wavelength in the red spectrum when mitochondrial membrane potential is intact. When mitochondria are depolarized, the wavelength of the spectrum emitted changes to green. Therefore, the ratio of red/green fluorescence will give an indication of the intactness of the membrane potential of mitochondria, and thus mitochondrial function.
MCF7 cells were cultured in 24-well plates at 1×10^4 per well and incubated overnight. Following drug inhibition the medium was removed and 1 μg/ml JC-1 (Molecular Probes) in DPBS was added to the cells. Plates were incubated for 30 min at 37° C., and washed two times with DPBS. Fluorescence from each well was measured at 530 nm/590 nm (excitation/emission) and by 485 nm/535 nm (excitation/emission) separately using PerkinElmer Victor 1420. The ratio of red to green fluorescence is a measure of mitochondrial membrane potential and thus mitochondrial function directly.
Mitochondrial membrane polarization was monitored using the procedure described above. Cells were cultured in 24-well plates at 1×10^4 per well and incubated overnight. […] Fluorescence from each well was measured at 530 nm/590 nm (excitation/emission) and by 485 nm/535 nm (excitation/emission) separately using PerkinElmer Victor 1420.

[3] = test system: MCF7 human breast cancer cells; assay: XTT cytotoxicity assay, MCF7; format: cell-based
Protocol: (§1) Cytotoxicity can be easily measured using XTT assays, which provide an indication of mitochondrial activity. The XTT assay is a non-radioactive alternative for the [^51Cr] release cytotoxicity assay. XTT is a tetrazolium salt that is reduced to a formazan dye only by metabolically active, viable cells. The reduction of XTT is measured spectrophotometrically as OD490-OD650. Thus, cells that are actively metabolizing will form reaction product when subjected to XTT measurement.
(§2) For this experiment, cells were cultured under standard culture conditions. MCF7 human breast cancer cells were cultured in DMEM containing 5 mM glucose medium with 10% fetal calf serum, 0.01 mg/ml insulin and 1% penicillin/streptomycin. To measure the cytotoxicity of specific compounds against cancer cells, 9×10^3 MCF7 cells were plated per well in 96-well plates. Following overnight culture, the compounds, dissolved in DMSO, were added to the wells in 1 μl volume at specified concentrations. Vehicle controls were run for each experiment. Each condition was run in triplicate. After 24 to 72 h of incubation, cells were incubated for 4 hours with the XTT reagent as per manufacturer's instructions (Cell Proliferation Kit II (XTT) Roche Diagnostics, New Jersey). Plates were read at OD490 on a PerkinElmer Victor 1420. Three wells containing the XTT reagent without cells served as the plate blank. XTT data were reported as OD490.
MCF7 human breast cancer cells were cultured in DMEM containing 1 mM or 5 mM glucose in the medium with 10% fetal calf serum, 0.01 mg/ml insulin and 1% penicillin/streptomycin. The cells were grown in two oxygen conditions, normoxia (21% 02) or hypoxia (1% 02). To measure the cytotoxicity of specific compounds against cancer cells, 9×10^3 MCF7 cells were plated per well in 96-well plates. Following overnight culture, the compounds, dissolved in DMSO, were added to the wells in 1 μl volume at specified concentrations. After 24 to 72 h of incubation, cells were incubated for 4 h with the XTT reagent as per manufacturer's instructions (Cell Proliferation Kit II (XTT) Roche Diagnostics, New Jersey). Plates were read at OD490 on a PerkinElmer Victor 1420. Three wells containing the XTT reagent without cells served as the plate blank. XTT data were reported as OD490Vehicle controls were run for each experiment. Each condition was run in triplicate.

[4] = test system: Human ovarian cancer cell lines; assay: XTT cytotoxicity assay, human ovarian cancer cell lines; format: cell-based; settings: 2 human ovarian cancer cell lines, read-out: LC50 (the source's name)
Protocol: as §1
as §2, with “After 24 to 72 h of incubation, cells were incubated for 4 hours with the XTT reagent as per manufacturer's instructions (Cell Proliferation Kit II (XTT) Roche Diagnostics, New Jersey).” left out, “Three wells containing the XTT reagent without cells served as the plate blank. XTT data were reported as OD490.” left out
(§3) Using the XTT assay, LC50 values for C31 were determined for numerous human cancer cell lines and human hepatocytes, as shown in the following table: […]

[5] = test system: Human (non-small cell) lung cancer cell lines; assay: XTT cytotoxicity assay, human non-small cell lung cancer cell lines; format: cell-based; settings: 4 human non-small cell lung cancer cell lines, read-out: LC50 (the source's name)
Protocol: as §1
as §2, with “After 24 to 72 h of incubation, cells were incubated for 4 hours with the XTT reagent as per manufacturer's instructions (Cell Proliferation Kit II (XTT) Roche Diagnostics, New Jersey).” left out, “Three wells containing the XTT reagent without cells served as the plate blank. XTT data were reported as OD490.” left out
as §3

[6] = alamarBlue assay, primary human hepatocytes; format: cell-based; settings: read-out: LC50 (the source's name)
[7] = test system: human cancer cell lines; assay: XTT cytotoxicity assay, all human cancer cell lines tested; format: cell-based
Protocol: as §1
as §2, with “XTT data were reported as OD490.” left out

T1 sequence (P12785 whole entry): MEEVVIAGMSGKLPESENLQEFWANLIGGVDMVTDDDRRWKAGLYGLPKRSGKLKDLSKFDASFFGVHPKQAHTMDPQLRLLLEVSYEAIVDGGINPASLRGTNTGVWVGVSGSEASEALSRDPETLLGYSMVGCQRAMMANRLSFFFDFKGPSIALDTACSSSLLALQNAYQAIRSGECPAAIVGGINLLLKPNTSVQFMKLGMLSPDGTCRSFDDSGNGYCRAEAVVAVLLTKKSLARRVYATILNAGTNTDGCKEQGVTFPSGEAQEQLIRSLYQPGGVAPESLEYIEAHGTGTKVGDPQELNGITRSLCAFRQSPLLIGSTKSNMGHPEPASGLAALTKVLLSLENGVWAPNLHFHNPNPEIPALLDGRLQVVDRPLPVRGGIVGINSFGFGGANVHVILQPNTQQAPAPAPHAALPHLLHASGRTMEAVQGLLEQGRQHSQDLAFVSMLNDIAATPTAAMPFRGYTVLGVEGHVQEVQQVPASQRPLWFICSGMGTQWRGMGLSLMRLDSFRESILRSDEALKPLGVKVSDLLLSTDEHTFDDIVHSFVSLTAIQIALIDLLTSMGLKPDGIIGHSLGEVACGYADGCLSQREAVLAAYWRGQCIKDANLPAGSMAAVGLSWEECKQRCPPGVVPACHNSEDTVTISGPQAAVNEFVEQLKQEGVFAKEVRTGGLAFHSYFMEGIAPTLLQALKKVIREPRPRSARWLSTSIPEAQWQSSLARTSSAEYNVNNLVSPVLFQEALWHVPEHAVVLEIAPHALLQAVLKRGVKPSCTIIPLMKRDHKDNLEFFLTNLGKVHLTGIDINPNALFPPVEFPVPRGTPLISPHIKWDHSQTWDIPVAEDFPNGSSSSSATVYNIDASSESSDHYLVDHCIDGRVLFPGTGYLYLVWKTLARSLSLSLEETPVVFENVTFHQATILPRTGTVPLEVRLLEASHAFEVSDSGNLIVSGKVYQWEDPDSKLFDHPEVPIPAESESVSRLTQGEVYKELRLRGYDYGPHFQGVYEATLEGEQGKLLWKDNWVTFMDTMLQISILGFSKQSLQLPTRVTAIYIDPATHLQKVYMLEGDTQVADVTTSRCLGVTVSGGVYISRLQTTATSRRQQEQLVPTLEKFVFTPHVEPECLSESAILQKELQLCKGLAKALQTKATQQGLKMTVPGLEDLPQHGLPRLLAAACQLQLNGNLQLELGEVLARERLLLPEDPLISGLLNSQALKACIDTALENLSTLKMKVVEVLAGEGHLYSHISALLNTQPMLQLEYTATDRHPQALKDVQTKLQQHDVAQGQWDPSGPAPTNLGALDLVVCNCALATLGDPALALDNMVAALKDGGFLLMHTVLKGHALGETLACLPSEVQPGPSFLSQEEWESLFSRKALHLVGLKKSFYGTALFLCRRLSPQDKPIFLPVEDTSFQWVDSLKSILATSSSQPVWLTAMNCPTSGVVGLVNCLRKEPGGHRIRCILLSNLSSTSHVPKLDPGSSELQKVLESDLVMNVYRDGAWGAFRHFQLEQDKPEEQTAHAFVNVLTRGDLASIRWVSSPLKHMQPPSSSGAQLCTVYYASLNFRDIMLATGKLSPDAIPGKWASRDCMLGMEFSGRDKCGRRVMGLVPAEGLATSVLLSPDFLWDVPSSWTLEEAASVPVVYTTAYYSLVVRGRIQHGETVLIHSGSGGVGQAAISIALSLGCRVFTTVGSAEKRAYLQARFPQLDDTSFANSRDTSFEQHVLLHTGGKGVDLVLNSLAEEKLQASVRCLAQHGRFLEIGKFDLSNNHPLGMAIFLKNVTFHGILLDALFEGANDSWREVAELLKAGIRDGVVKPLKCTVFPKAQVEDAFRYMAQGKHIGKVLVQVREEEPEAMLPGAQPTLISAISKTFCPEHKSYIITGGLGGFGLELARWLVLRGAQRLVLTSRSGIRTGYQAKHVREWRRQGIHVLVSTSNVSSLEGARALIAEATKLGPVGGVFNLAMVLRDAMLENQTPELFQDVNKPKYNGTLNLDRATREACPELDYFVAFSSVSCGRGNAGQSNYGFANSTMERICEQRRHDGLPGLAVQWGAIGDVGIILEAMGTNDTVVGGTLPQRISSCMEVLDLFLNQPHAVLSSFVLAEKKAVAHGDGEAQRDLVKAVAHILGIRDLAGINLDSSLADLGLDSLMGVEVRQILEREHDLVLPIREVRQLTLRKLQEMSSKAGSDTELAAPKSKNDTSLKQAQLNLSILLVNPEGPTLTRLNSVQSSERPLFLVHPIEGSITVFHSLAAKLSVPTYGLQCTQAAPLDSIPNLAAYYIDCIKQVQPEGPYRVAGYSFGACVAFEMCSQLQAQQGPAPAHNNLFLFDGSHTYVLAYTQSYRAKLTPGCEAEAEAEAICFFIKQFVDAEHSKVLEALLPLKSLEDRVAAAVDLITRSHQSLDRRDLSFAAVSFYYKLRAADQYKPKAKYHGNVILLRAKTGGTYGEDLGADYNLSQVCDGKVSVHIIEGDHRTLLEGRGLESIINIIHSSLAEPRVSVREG

Question: With CCCCCCCCC1(C)SC(=O)C=C1OCC(=O)Nc1ccc(Cl)cc1 (centres unmarked) [Compound C31] as the compound, how does the IC50 [1] read?
Answer: 42 µM

Question: And the IC50 ([1]; approximate)?
Answer: ~41 µM

Question: What about the “mitochondrial membrane potential (JC-1 staining)” value ([2]; MCF7, standard conditions, FIGS. 6, 7) of the same compound?
Answer: rapid and profound effect on altering mitochondrial membrane potential

Question: And the “mitochondrial membrane polarization (JC-1 staining)” value ([2]; MCF7, varying glucose and oxygen, FIG. 11)?
Answer: reductions in mitochondrial membrane polarization

Question: And the “cytotoxicity (XTT)” value ([3]; MCF7, 1 mM or 5 mM glucose, 1% or 21% O2, FIG. 9)?
Answer: increases if the cells are hypoglycemic and even more if the cells are hypoxic

Question: And the “cytotoxicity / cell viability (XTT)” value ([3]; MCF7, standard culture, FIG. 4 A, B)?
Answer: concentration-dependent cytotoxicity

Question: And the CC50 [4]?
Answer: 6 to 8.1 µg/mL (≈ 14.6 to 19.8 µM)

Question: What about the CC50 [5] of the same compound?
Answer: 4 to 8 µg/mL (≈ 9.76 to 19.5 µM)

Question: What about the CC50 [6] of the same compound?
Answer: 225 µg/mL and 562 µM

Question: What about the CC50 ([7]; Homo sapiens, XTT, range over all cancer cell lines, read-out: LC50, human cancer cell lines) of the same compound?
Answer: 3.3 µg/mL to 16.7 µg/mL and 8.25 µM to 41.8 µM

Question: What about the “potential therapeutic index in vitro” value ([7]; hepatocyte LC50 vs cancer cell line LC50) of the same compound?
Answer: 34 to 170 fold
